Test results as given in patent US5861387A, “Controlled release systems and low dose androgens” (Endorecherche Inc., priority 1995, dated 1999).
In brackets after ≈: the same amount, converted by molar mass. Read-outs that look alike come from different tables or passages of the source.

Experiments:
[1] = system: human breast cancer ZR-75-1 cells, androgen receptor; assay: Androgenic (androgen receptor) activity in ZR-75-1 cells: cell growth and GCDFP-15/GCDFP-24 secretion; type: cell-based
Protocol: Maintenance of stock cultures The ZR-75-1 human breast cancer cell line can be obtained from the American Type Culture Collection (Rockville, Md.). The cells are routinely cultured in phenol red-free RPMI 1640 medium supplemented with 10 nM E2, 15 mM Hepes, 2 mM L-glutamine, 1 mM sodium pyruvate, 100 IU penicillin per ml, 100 μg streptomycin sulfate per ml, and 10% (v/v) fetal bovine serum (FBS), in a water-saturated atmosphere of 95% air: 5% CO2 at 37° C.
Stock cultures in their logarithmic growth phase are harvested with 0.05% trypsin/0.02% EDTA (w/v) in Hanks' balanced salts solution and resuspended in E2- and phenol red-free RPMI 1640 medium containing 5% (v/v) dextran-coated charcoal (DCC)-treated FBS and 500 ng of bovine insulin per ml, but otherwise supplemented as described above for maintenance of stock cultures. Cells were plated in 24-well Linbro culture plates (Flow Laboratories) at a final density of 0.5-4.0×10^4 cells/well.
Fourty-eight hours after plating, fresh SD medium containing the appropriate concentrations of steroids are added. […] The incubation media are replaced every other day and cells are harvested by trypsinization after 12 days of treatment, unless otherwise indicated. Cell number can be determined with a Coulter Counter.
Calculations and statistical analyses Apparent IC50 values are calculated using an iterative least squares regression (Rodbard, Endocrinology 94:1427-1437,1974), while apparent inhibition constants (Ki values) are calculated according to Cheng and Prusoff (Biochem. Pharmacol. 22: 3099-3108,1973).
In addition to inhibition of cell growth, the secretion of two glycoproteins, namely gross cystic disease fluid protein-15 (GCDFP-15) and GCDFP-24 is markedly stimulated by androgens (Simard et al., Mol. Endocrinol. 3: 694-702, 1989; Simard et al., Endocrinology 126: 3223-3231, 1990).
(§1) To assist in determining the activity of the potential compounds on the various steroid receptors, androgen, glucocorticoid, progesterone and estrogen-receptor-mediated activities of synthetic progestins and anabolic steroids can be measured in ZR-75-1 human breast cancer cells using cell growth as well as GCDFP-15 and GCDFP-24 release as parameters of response (Poulin and Labrie, Cancer Res. 46: 4933-4937, 1986; Poulin et al., Breast Cancer Res. Treatm. 12: 213-225, 1988; Poulin et al., Breast Cancer Res. Treatm. 13: 161-172, 1989; Poulin et al., Breast Cancer Res. Treatm. 13: 265-276, 1989; Simard et al., Mol. Endocrinol. 3: 694-702, 1989; Simard et al., Endocrinology 126: 3223-3231, 1990).
In order to analyze the interactions of synthetic progestins or anabolic steroids with the androgen receptor (AR) and glucocorticoid receptor (GR) in their inhibitory action on cell growth, one takes advantage of the additivity of the anti-proliferative effects of androgens and glucocorticoids in this cell line (Poulin et al., Breast Cancer Res. Treatm. 12: 213-225, 1988; Hatton and Labrie, F., unpublished data). […] On the other hand, the effect of a putative androgen can similarly be measured following saturation of GR by dexamethasone (DEX). […] Thus, in the presence of excess androgen (1 μM DMT) in the presence of E2 and insulin, glucocorticoid effects can be assessed with precision and with no interference by the other receptors. The same applies to study of the role of AR when the cells are incubated in the presence of excess glucocorticoid (3 μM DEX), in the presence of E2 and insulin.

masculinizing activity = settings: low blood concentrations; cited from earlier work
estrogenic activity = settings: cited from earlier work
[2] = system: ZR-75-1 human breast cancer cells, progesterone receptor; assay: Progesterone receptor-mediated inhibition of ZR-75-1 cell growth; type: cell-based
Protocol: These two characteristics of ZR-75-1 cell growth permit study of the extent to which a tested compound's effects on ZR-75-1 cells are attributed to its interaction with PgR by evaluating the effect of insulin and/or estrogen addition on the growth response measured at the end of a 15-day incubation of ZR-75-1 cells with the test compounds.

[3] = system: ZR-75-1 human breast cancer cells, glucocorticoid receptor; settings: detailed kinetic studies
Excerpt: as §1
In order to analyze the interactions of synthetic progestins or anabolic steroids with the androgen receptor (AR) and glucocorticoid receptor (GR) in their inhibitory action on cell growth, one takes advantage of the additivity of the anti-proliferative effects of androgens and glucocorticoids in this cell line (Poulin et al., Breast Cancer Res. Treatm. 12: 213-225, 1988; Hatton and Labrie, F., unpublished data). […] On the other hand, the effect of a putative androgen can similarly be measured following saturation of GR by dexamethasone (DEX). […]

endometriosis [4] = settings: in vivo; cited from earlier work
bone = settings: in vivo; cited from earlier work
[5] = system: estrogen (ER) and progesterone (PgR) receptor contents in ZR-75-1 cells; settings: cited from earlier work
breast cancer = settings: high doses, unselected breast cancer patients; cited from earlier work
ventral prostate = settings: rat, in vivo; cited from earlier work
pituitary AR [6] = settings: rat, in vivo; cited from earlier work
[7] = system: ZR-75-1 human breast cancer cells; settings: cited from earlier work
[8] = Stability to gamma sterilization (SEC, viscosity); type: physicochemical; settings: 2.2 Megarads
Excerpt: FIGS. 10A and 10B show, in (A), "the variation of the different parameters" [M(n-1), Mn, Mw, Mz,M(z+1)] characteristics of the molecular mass of 50:50 poly[DL-lactide-co-glycolide] following exposure to the indicated levels of gamma irradiation (Mrad); and, in (B), the variation of the polydensity (Mw/Mn) versus the level of gamma irradiation (Mrad).
Before injection, the microspheres were sterilized by exposure to 2.2 Megarads of gamma radiation achieved with a Cobalt-60 source (Gammacell 200). The stability of MPA was checked by steric exclusion chromatography (SEC) while the stability of the polymer was analyzed by SEC using polystyrene standards for calibration and by the modification of the relative viscosity using a Ubbelohde capillary viscometer.
Samples of batch MPA-MB-V have been exposed to different amounts of gamma radiation (0,1.1, 2.2 Megarads) and the molecular mass distribution parameters [M(n-1), Mn, Mw, Mz, M(z+1)] (see FIG. 10A) as well as their polydispersity (Mw/Mn) (FIG. 10B) were measured.

[9] = system: estrogen binding in the endometrium; settings: oral, follicular phase; cited from earlier work
[10] = cited from earlier work
endometriosis [11] = settings: high dose, 6 months, cited from earlier work
pituitary AR [12] = settings: in vivo; cited from earlier work
kidney = settings: mouse, in vivo; cited from earlier work
antibody 144A = assay: MPA radioimmunoassay, specificity of antibody 144A; type: binding, rabbit; settings: MPA radioimmunoassay
Excerpt: Antibody 144A was raised in rabbits against 17-hydroxyprogesterone-3-0-carboxymethyloxime-BSA. The labeled steroid used in the radioimmunoassay (RIA) was methyl-17α-hydroxyprogesterone acetate, 6α-[1,2-^3 H(N)]- obtained from NEN (CAT NO: NET 480) while the reference preparation was medroxyprogesterone acetate (MPA) obtained from Steraloids. The assay buffer used was 0.1% gelatin in 0.1M sodium phosphate, 0.15M sodium chloride, 0.1% sodium azide, pH 7.2. The extraction solvent mixture was ethyl ether-acetone (9:1, v:v) [EEA] while the LH-20 chromatography solvent mixture was iso-octane: toluene: methanol (90:5:5;v:v:v) [IOTH].
One ml of plasma was extracted twice with 5 ml of EEA. The extracts were evaporated to dryness with nitrogen and the remaining residue was dissolved in one ml of IOTH. The extracts were then subjected to LH-20 chromatography on […] columns (Coming CAT NO: 05 722A) filled with 2 g of LH-20 (Pharmacia). The gel was washed with 30 ml of IOTH before addition of one ml of sample and elution with IOTH. The first 6 ml were discarded. The following 10, 16.5 and 27.5 ml of eluent were fraction I (progesterone), II (MPA) and III (17-LH-progesterone), respectively. Fraction II was evaporated to dryness and reconstituted in 1.5 ml of assay buffer.
To each 12 x 75 mm borosilicate test tube was added: 0.2 ml containing 25,000 DPM of tritiated steroid, 0.5 ml of reference preparation ranging from 5 to 5000 pg/tube or 0.5 ml of extracted sample fraction II, 0.2 ml of antiserum 144A diluted 1/5000 or 0.2 ml of assay buffer to account for non specific binding. The tubes were then incubated overnight at 4° C. Then, 0.2 ml 2% charcoal Norit-A, 0.2% Dextran T-70 diluted in water was added. The tubes were then shaken gently and, after 10 min, they were centrifuged at 2000 x g for 10 min. The supernatant was mixed with 8 ml of Formula-989 (NEN: NEF-989) and the radioactivity was counted in a β-counter.

endometrial cancer = settings: high dose; cited from earlier work

## C[C@]12CCC(=O)C[C@@H]1CC[C@@H]1[C@@H]2CC[C@]2(C)[C@@H](O)CC[C@@H]12 [DHT, 5α-dihydrotestosterone]
[1]; detailed kinetic studies, ZR-75-1
  concentration exerting maximal inhibitory effect on the AR: 1 µM
Masculinizing activity
  masculinizing activity: considerable masculinizing activity even at low blood concentrations

## C#C[C@]1(O)CC[C@H]2[C@@H]3CCC4=CC(=O)CC[C@@H]4[C@H]3CC[C@@]21C [norethisterone]
Estrogenic activity
  estrogenic activity: possess estrogenic activity

## C#CC1(O)CC[C@H]2[C@@H]3CCC4=CC(=O)CC[C@@H]4[C@H]3CC[C@@]21CC (mixture of isomers) [norgestrel]
Estrogenic activity
  estrogenic activity: possess estrogenic activity
[1]; ZR-75-1 cells, low concentrations
  androgenic activity: possess androgenic activity at low concentrations

## CCC(=O)[C@@]1(C)CC[C@H]2[C@@H]3CCC4=CC(=O)CCC4=C3CC[C@@]21C [R5020]
[2]
  condition under which antiproliferative effect is observed: observed only under E1 -stimulated conditions
[2]; addition of insulin
  effect of insulin on inhibition via PgR: completely reverses the inhibition

## C[C@@H]1C[C@H]2[C@@H]3CCC4=CC(=O)C=C[C@]4(C)[C@@]3(F)[C@@H](O)C[C@]2(C)[C@@]1(O)C(=O)CO [DEX, dexamethasone]
[3]
  concentration exerting maximal inhibitory effect on the GR: 3 µM

## C[C@]12CCC(=O)C=C1CC[C@@H]1[C@@H]2CC[C@@]2(C)[C@H]1CC[C@]2(C)O [methyltestosterone, 17α-methyltestosterone]
Endometriosis [4]
  symptoms of endometriosis: relieve the symptoms of endometriosis

## C[C@]12CC[C@H]3[C@@H](CCC4=CC(=O)CC[C@@H]43)[C@@H]1CC[C@@H]2O [nandrolone]
bone
  androgenic side effects: 50 % of patients
  cortical bone mineral content: increased cortical bone mineral content

## CC(C)(O)C(=O)Nc1ccc([N+](=O)[O-])c(C(F)(F)F)c1 [hydroxyflutamide]
[5]
  effect on androgenic action of DHT: competitively reversed

## CC(=O)O[C@]1(C(C)=O)CC[C@H]2[C@@H]3C[C@H](C)C4=CC(=O)CC[C@]4(C)[C@H]3CC[C@@]21C [MPA, 6-alpha-methyl,17-alpha-acetoxy progesterone]
Breast cancer
  overall clinical response rate: 40%
Ventral prostate
  androgenic activity: exhibits androgenic activity
Pituitary AR [6]
  effect on gonadotropin secretion: inhibitory effect
[7]
  concentration of maximal inhibitory action on human breast cancer cell growth: 1 nM
  dose required for glucocorticoid action relative to maximal growth inhibition: approximately 1000 fold
  mechanism of growth inhibition of ZR-75-1 cells: mainly due to the androgenic properties of the compound
[8]
  stability to gamma radiation: does not damage MPA
[9]
  level of estrogen binding in the endometrium: decrease in the level of estrogen binding
[10]; acne, hirsutism
  virilizing symptoms: seldom causes significant virilizing symptoms
[10]; human, in vivo
  adrenal function: Suppression of adrenal function
  glucocorticoid-like side effects: Cushingoid syndrome, euphoria and subjective pain relief
Endometriosis [11]; placebo 6%
  partial resolution: 13 % of subjects
Endometriosis [11]; placebo 12%
  resolution of the disease: 50 % of the patients
Pituitary AR [12]
  effect on gonadotropin secretion: inhibitory effect
kidney
  androgenic activity: exhibits androgenic activity
Antibody 144A
  ED50 value (RIA): 0.315 ng/mL (≈ 0.815 nM)
Endometrial cancer
  treatment of endometrial cancer: successfully used
  treatment of endometrial carcinoma compared with Tamoxifen: success similar to that of Tamoxifen
